Measurements as given in patent US10064848B2, “Pyridic ketone derivatives, method of preparing same, and pharmaceutical application thereof” (Shanghai Hengrui Pharmaceutical Co., Ltd., priority 2013, dated 2018).

Experiments:
CYP2C19 = target: T1, CYP2C19 (Homo sapiens, UniProt P33261); test: In vitro CYP enzyme inhibition, human liver microsomes; format: in vitro ADME; details: probe (S)-Mephenytoin, single point method
T1 construct: from tissue; host or cells: human liver microsomes
Protocol: (§1) Human liver microsome incubation system was used to reflect the activity of enzymes based on the amount of metabolites produced. Enzyme inhibition of the test compounds was investigated on CYP1A2, CYP2C9, […], CYP3A4m, CYP3A4t and CYP2C19, and IC50 values (a concentration of the test compound that is required for 50% inhibition of enzyme activity) were measured. […] The appropriate amount of test compound standard sample was weighed, and diluted with DMSO to 50 mM to obtain stock solution I. The stock solution I was diluted with PBS to 100 μM to obtain the reaction liquid which is to be used in incubation. [table] The reaction mixture was prepared: 60 μL [table] The above mixture was preincubated for 5 minutes at 37° C., followed by addition of 40 μL of NADPH (2.5 mM, PBS formulation). The mixture solution was incubated for 20 minutes at 37° C. All incubated samples were set to double samples. 300 μL ice-cold acetonitrile was added to terminate the reaction. The reaction solution was added with 100 μl internal standard, mixed uniformly, and centrifuged for 10 minutes at 3500 rpm. The supernatant was transferred to the LC-MS/MS analysis. The activity of enzymes was reflected by the production amount of metabolites. Using a single point method, the formula was calculated as follows: According to the known literature: IC50>10 μM belongs to weaker inhibition, 1 μM<IC50<10 μM belong to moderate inhibition, IC50<1 μM belong to strong inhibition.

CYP1A2 = target: T2, CYP1A2 (Homo sapiens, UniProt P05177); test: as above; format: in vitro ADME; details: probe Phenacetin, single point method
T2 construct: from tissue; host or cells: human liver microsomes
T2 sequence (P05177 1-516): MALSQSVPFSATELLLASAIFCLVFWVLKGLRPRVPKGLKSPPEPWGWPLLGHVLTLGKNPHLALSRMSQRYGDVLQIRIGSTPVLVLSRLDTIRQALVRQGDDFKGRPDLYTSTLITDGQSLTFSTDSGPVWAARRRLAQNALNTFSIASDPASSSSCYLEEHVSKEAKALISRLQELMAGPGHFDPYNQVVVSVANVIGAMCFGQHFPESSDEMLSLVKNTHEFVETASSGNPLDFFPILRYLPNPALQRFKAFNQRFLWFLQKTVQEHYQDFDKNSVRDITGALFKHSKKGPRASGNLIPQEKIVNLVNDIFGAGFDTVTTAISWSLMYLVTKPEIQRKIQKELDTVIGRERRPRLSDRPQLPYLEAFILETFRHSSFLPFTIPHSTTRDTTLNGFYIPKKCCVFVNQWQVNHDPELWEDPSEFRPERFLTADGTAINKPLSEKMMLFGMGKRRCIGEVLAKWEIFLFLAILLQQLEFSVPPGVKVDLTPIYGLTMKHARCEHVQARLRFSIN
Protocol: as §1

CYP2C9 = target: T3, CYP2C9 (Homo sapiens, UniProt P11712); test: as above; format: in vitro ADME; details: probe Diclofenac, single point method
T3 construct: from tissue; host or cells: human liver microsomes
T3 sequence (P11712 whole entry): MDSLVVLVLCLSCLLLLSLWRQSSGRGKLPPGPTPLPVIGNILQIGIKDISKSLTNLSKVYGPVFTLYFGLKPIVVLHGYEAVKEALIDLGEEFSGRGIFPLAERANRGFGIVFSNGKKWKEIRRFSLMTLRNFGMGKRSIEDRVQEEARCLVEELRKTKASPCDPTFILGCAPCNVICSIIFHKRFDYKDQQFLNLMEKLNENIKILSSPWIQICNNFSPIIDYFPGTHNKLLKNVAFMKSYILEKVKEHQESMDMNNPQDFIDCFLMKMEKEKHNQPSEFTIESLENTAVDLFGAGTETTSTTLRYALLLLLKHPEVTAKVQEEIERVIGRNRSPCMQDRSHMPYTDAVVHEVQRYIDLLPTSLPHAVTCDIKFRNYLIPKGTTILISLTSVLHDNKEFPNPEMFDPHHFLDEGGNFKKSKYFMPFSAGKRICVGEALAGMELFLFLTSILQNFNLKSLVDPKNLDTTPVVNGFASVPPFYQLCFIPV
Protocol: as §1

[1] = target: T4, MEK1 (Recombinant Human Protein) (Homo sapiens, UniProt Q02750); test: MEK1 kinase inhibition assay (Z'-LYTE Kinase Assay Kit-Ser/Thr 03 Peptide); format: biochemical; details: 4 hours at 37° C, read-out: IC50 for inhibiting MEK kinase (MEK1)
T4 construct: purchased Invitrogen PV3093
T4 sequence (Q02750 whole entry): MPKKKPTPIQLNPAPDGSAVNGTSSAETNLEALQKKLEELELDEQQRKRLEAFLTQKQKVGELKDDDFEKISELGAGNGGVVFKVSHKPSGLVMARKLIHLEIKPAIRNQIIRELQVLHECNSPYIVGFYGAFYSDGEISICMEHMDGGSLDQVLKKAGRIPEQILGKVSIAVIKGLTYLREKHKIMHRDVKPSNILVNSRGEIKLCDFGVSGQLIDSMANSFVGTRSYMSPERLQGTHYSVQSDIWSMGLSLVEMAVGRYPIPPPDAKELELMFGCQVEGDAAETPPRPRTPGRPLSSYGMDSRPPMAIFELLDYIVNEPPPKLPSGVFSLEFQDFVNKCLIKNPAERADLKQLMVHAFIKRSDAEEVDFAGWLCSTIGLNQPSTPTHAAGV
Protocol: MEK1 kinase activity was tested in vitro by the following method.
MEK kinase used in the assay: MEK1 (Recombinant Human Protein, Invitrogen, Catalog No. PV3093).
Kit used in the assay: Z′-LYTE™ Kinase Assay Kit-Ser/Thr 03 Peptide (Invitrogen, Catalog No. PV3176).
The following in vitro assay was used to determine the activity of the compounds of the present invention for inhibiting the […] MEK kinase. The test compound was dissolved in dimethyl sulfoxide to the desired concentration. 1× Buffer A (Invitrogen, Catalog No. PV3189) was prepared, ATP was diluted with 1× Buffer A to obtain 400 μM ATP solution, appropriate amounts of Z′-LYTE™ Ser/Thr 03 Peptide (Invitrogen, Catalog No. PV3200), MEK kinase (MEK1) Enzymes and 1× Buffer A were mixed, and appropriate amounts of Z′-LYTE™ Ser/Thr 03 phosphoPeptide substrate (Invitrogen, Catalog No. PV3215) and 1× Buffer A were formulated into a mixture to be tested. The 4% DMSO solution of the test compound was prepared from 1× buffer and DMSO solution of the test compound. 2.5 μL DMSO solution of the test compound was added to a reaction well, and then 1× Buffer A, 2.5 μL of 400 μM ATP solution, 5 μL of enzyme and substrate mixture were added to become a 10 μL of reaction system. The reaction system was incubated for 4 hours at 37° C., and a mixture was prepared according to Reagent A:Buffer B=1:1024. 5 μL of a mixture of Reagent A (Invitrogen, Catalog No. PV3295) and Buffer B (Invitrogen, Catalog No. P3127) was added to a reaction well, the reaction system was incubated for 60 minutes at 25° C. The fluorescence was read by a NovoStar ELISA with excitation wavelength: 400 nm, and emission wavelength: 445 nm and 520 nm.
The activity of the compounds of the present invention: The above assay was used to determine the biochemical activity of the compounds of the present invention for inhibiting MEK kinase (MEK1).

HCT116 cell = test: Proliferation inhibition on human colon cancer cell HCT116 (CCK8); format: cell-based; details: HCT-116, HCT116, 72 hours
Text: The following in vitro cell assay was used to determine the activity of the compounds of the present invention for inhibiting the proliferation of human colon cancer cell, and the activity is expressed as IC50.
Cell line which was used in the experiment: HCT116 (Cell Bank of the Chinese Academy of Sciences, Catalog No. TCHu99).
General programs of this kind of assay were as follows: First, the cell line to be tested was inoculated in a 384-well culture plate with a suitable cell concentration of 1000 cells/well, and was cultured in an incubator under the conditions of 37° C. and 5% CO2, then grown overnight. The medium was replaced by new medium added with a series of concentrations (1000 nM, 250 nM, 62.50 nM, 15.63 nM, 3.91 nM, 0.98 nM, 0.24 nM, 0.06 nM, 0.015 nM, 0.004 nM) of the test compound solutions. The plates were placed back in the incubator, and continuously cultured for 72 hours. After 72 hours, CCK8 (Cell Counting Kit-8, Catalog No.: CK04, purchased from colleagues chemical company) method was used to determine the proliferation inhibition activity of the test compounds. IC50 values were calculated from the inhibition data of the test compounds at a series of different concentrations.
The above assay was used to determine the biochemical activity of the compounds of the present invention.

T1 sequence (P33261 whole entry): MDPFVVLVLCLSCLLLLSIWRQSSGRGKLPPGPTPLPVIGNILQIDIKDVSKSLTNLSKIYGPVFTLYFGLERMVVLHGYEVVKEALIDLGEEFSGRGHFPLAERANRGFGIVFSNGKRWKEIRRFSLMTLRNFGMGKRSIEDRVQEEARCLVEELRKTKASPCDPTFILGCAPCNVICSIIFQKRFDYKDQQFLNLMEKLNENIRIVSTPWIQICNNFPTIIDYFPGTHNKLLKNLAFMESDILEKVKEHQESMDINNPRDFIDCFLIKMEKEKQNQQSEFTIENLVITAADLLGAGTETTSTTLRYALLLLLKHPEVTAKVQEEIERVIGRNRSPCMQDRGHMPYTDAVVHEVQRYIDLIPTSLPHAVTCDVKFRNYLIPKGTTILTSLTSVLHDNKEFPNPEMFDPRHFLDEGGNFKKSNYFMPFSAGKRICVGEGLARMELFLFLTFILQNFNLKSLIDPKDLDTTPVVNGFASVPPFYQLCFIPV

Compound	IC50 (CYP2C19) [nM]	IC50 (CYP1A2) [nM]	IC50 (CYP2C9) [nM]	IC50 [1] [nM]	IC50 (HCT116 cell) [nM]
Cc1ncccc1Oc1cc(=O)n(C)c(Nc2ccc(I)cc2F)c1C(N)=O [Example 29, 2-((2-fluoro-4-iodophenyl)amino)-1-methyl-4-((2-methylpyridin-3-yl)oxy)-6-oxo-1,6-dihydropyridine-3-carboxamide]	> 10000	> 10000	> 10000	3.6	8.9
Cc1c(F)cccc1Oc1cc(=O)n(C)c(Nc2ccc(I)cc2F)c1C(N)=O [Example 1, 4-(3-fluoro-2-methylphenoxy)-2-((2-fluoro-4-iodophenyl)amino)-1-methyl-6-oxo-1,6-dihydropyridine-3-carboxamide]	> 10000	> 10000	> 10000	4.7	8.6
Cc1ccc(Oc2cc(=O)n(C)c(Nc3ccc(I)cc3F)c2C(N)=O)cn1 [Example 31, 2-((2-fluoro-4-iodophenyl)amino)-1-methyl-4-((6-methylpyridin-3-yl)oxy)-6-oxo-1,6-dihydropyridine-3-carboxamide]	> 10000	> 10000	> 10000	3.9	36.4
CCS(=O)(=O)Nc1cccc(Oc2cc(=O)n(C)c(Nc3ccc(I)cc3F)c2C(N)=O)c1C [Example 3, 4-(3-(ethylsulfonamido)-2-methylphenoxy)-2-((2-fluoro-4-iodophenyl)amino)-1-methyl-6-oxo-1,6-dihydropyridine-3-carboxamide]	> 10000	> 50000	> 50000	4.1	0.06
Cc1cc(F)ccc1Oc1cc(=O)n(C)c(Nc2ccc(I)cc2F)c1C(N)=O [Example 22, 4-(4-fluoro-2-methylphenoxy)-2-((2-fluoro-4-iodophenyl)amino)-1-methyl-6-oxo-1,6-dihydropyridine-3-carboxamide]	> 10000	> 10000	> 10000	4.3	10.3
